Assays:
[1] = tested on: corpus cavernosum of the rabbit (RbCC); type: cell-based; conditions: for relaxation of RbCC in presence of ATP-dependent potassium channel blocker: blocker 10 μM (Glybenclamide, FIG. 4)
[2] = tested on: HCC; assay: Superfusion of isolated corpus cavernosum (human, HCC); type: cell-based
[3] = tested on: nociception by formalin; assay: Formalin-induced licking; type: in vivo, mice; conditions: naloxone 10 minutes before; acute and inflammatory phases, formalin 2.5% w/v
Experimental: Male Swiss mice varying from 25 to 35 g, were housed at 22° C.±2° C. under a 12 h light/12 h dark circle and with access to water and purina. The animals were acclimatized to the laboratory for at least 1 hour before testing and were used once throughout the experiments.
Mice were lightly anaesthetized, with exception of those used to analyze the first phase of fromalin-induced pain. The surface of the animals paws was injected with 20 μL of 2.5% w/v formalin. Two groups of mice (mice treated with T. catigua and control mice) were simultaneously observed over a period from 0 to 30 min after the formalin injection. The total time spent by the animal licking the injected paw was timed with a chronometer and was considered as an indicative of pain. The first phase of the nociceptive response normally occurred […] the formalin injection and the second phase was from 15 to 30 min after such induction. These phases represent the neurogenic and inflammatory responses, respectively. In order to avoid pharmacokinetic influences, different groups of animals were used to analyze each phase of the experiment. Alternatively, animals were pretreated with naloxone 10 min prior to the administration of compositions comprising an extract of T. catigua.

N=C(N)NCCC[C@H](N)C(=O)O [L-arg, L-arginine]
RbCC tonus on subsequent infusion after L-NAME ([1]; L-arg 300 μM after L-NAME, FIG. 2): reverted the enhanced tonus

COC(=O)[C@@H](N)CCCNC(=N)N[N+](=O)[O-] [L-NAME, N^m-nitro-L-arginine methyl ester]
basal tonus of RbCC ([1]; infusion of L-NAME 10 μM, FIG. 2): enhanced the basal tonus | HCC tonus ([2]; infusion of L-NAME): enhanced the HCC tonus

CC1(C)Oc2ccc(C#N)cc2C(N2CCCC2=O)C1O (stereo not shown) [CMK, cromakalim]
relaxation of RbCC in presence of ATP-dependent potassium channel blocker [1]: inhibited

O=[N+]([O-])OCC(CO[N+](=O)[O-])O[N+](=O)[O-] [GTN, glyceryltrinitrate]
relaxation of RbCC in presence of tetrodotoxin [1]: did not present any effect | relaxation of RbCC during L-NAME infusion ([1]; L-NAME 10 μM, FIG. 2, 6 experiments): not affected | relaxation of RbCC in presence of atropine ([1]; atropine 1 μM, FIG. 3, 4 experiments): did not present any effect | relaxation of RbCC in presence of ATP-dependent potassium channel blocker [1]: without affecting | relaxation of HCC during L-NAME infusion ([2]; Ach 0.6 μM, GTN 1.3 μM, Cat 10-100 μL, 4 tissue strips from 2 donators): not significantly affected

CN1CC[C@]23c4c5ccc(O)c4O[C@H]2[C@@H](O)C=C[C@H]3[C@H]1C5 [morphine]
analgesic action after pretreatment with naloxone [3]: reverted

— patent publication US6335039B1, “Pharmaceutical formulations comprising vegetal material selected from trichilia” (Laboratorio Catarinense S/A, priority 1997, dated 2002)
